Publication PMC11206678, “Peptide-Alkoxyamine Drugs: An Innovative Approach to Fight Schistosomiasis: “Digging Their Graves with Their Forks”” (Pathogens, 2024)
Where a name gives a salt, the structure may show the parent alone.

Tests used:
[1] = Homolysis kinetics of alkoxyamines by EPR (growth of nitroxide); assay type: physicochemical; details: mixture of diastereoisomers; for Homolysis rate constant kd: 0.1 mM alkoxyamine, O2 as alkyl radical scavenger; for Activation energy Ea: by Equation (2) from kd and T, A = 2.4 10^14 s^−1
Procedure: Preparation of alkoxyamines and reference samples. All reagents including anhydrous solvents used for the chemical synthesis were purchased from commercially available sources such as Merck, TCI, and Fluorochem, and were used without further purification. All air and/or water-sensitive reactions were carried out under an argon atmosphere with dry solvents using standard syringe-cannula/septa techniques. Routine monitoring of reactions was performed using Merck Silica gel 60 F254, aluminum-supported TLC plates; spots were visualized using UV light and ethanolic acidic para-anisaldehyde solution or ethanolic phosphomolybdic solution, followed by heating. Purifications by means of column chromatography were performed with Silica gel 60 (230–400 mesh). ^1H, ^13C, and ^19F NMR spectra were obtained in CDCl3, MeOD (with residual H2O), D2O, DMSO-d6, or C6D6 solutions on by using Bruker AC400 (400 MHz) and Bruker AC300 (300 MHz) spectrometers. High-resolution mass spectra (HRMS) have been performed using a SYNAPT G2 HDMS (Waters) mass spectrometer equipped with a pneumatically assisted atmospheric pressure ionization (API) source. The sample was ionized in positive electrospray mode under the following conditions: electrospray voltage: 2.8 kV; port voltage: 20 V; Nebulizing gas flow rate (nitrogen): 100 L/h or in negative electrospray mode under the following conditions: electrospray voltage: −2.27 kV; port voltage: −20 V; Nebulizing gas flow rate (nitrogen): 100 L/h. The mass spectra (MS) were obtained with a time-of-flight (TOF) analyzer. The exact mass measurements were carried out in triplicate with external calibration. Homolysis constants were measured by EPR on an EMX Bruker spectrometer from 10^−4 M samples in tertbutyl benzene or in a mixture of H2O-nPrOH (1:1; v:v).
Kinetic experiments. Kinetics of A1–A7 (Scheme 2) for series L and D are performed by monitoring the growth of nitroxide by Electron Paramagnetic Resonance (X-band EMX Bruker machine) in tert-butylbenzene and a water/n-PrOH (for a good solubility of the alkoxyamine) as solvents and using O2 as alkyl radical scavenger to suppress the back reaction (kc in Scheme 2) as already reported. Homolysis rate constants kd are given by Equation (1) ([nitroxide]∞ = [alkoxyamine]0 = 0.1 mM, see Table S1) and the subsequent activation energies Ea given by Equation (2). (1) lnnitroxide∞−nitroxidet/nitroxide∞=−kd·t, (2) Ea=−RTlnkd/A.

[2] = tested on: Vero cells; assay type: cell-based; details: 48 h
Procedure: A non-cancer line of Vero cells was used to determine the cytotoxicity of the compound against mammalian cells. They were evaluated at a final DMSO concentration of 0.5%. The culture medium was MEM (Dutscher, Bernolsheim, France) supplemented with 10% fetal bovine serum (Fisher Scientific, Illkirch, France), 1X non-essential amino acids (Fisher Scientific, Illkirch, France), 100 U/mL, 100 µg/mL penicillin/streptomycin (Fisher Scientific, Illkirch, France), and 2 mM L-glutamine (Fisher Scientific, Illkirch, France) at 37 °C in a humidified 5% CO2 atmosphere. Vero cells (100 µL of 10^5 cells/mL per well) were plated in 96-well plates for 24 h then treated with 100 µL of compound dilutions (in duplicate) during 48 h. All molecules were tested from 5 nM to 50 µM. Each well was then examined under the microscope to detect any precipitate formation before the supernatant was removed by flicking the plate. A volume of 100 µL of 0.5 mg/mL in MEM from a stock solution at 5 mg/mL of PBS-dissolved MTT (3-(4,5-dimethylthiazol-2-yl)-2,5-diphenyltetrazolium bromide, Sigma Aldrich/Merck, Darmstadt, Germany) was then added to each well [20].
After incubation for 1 h at 37 °C and 5% CO2 the supernatant was removed and 100 µL of DMSO were added. Plates were gently shaken to dissolve formazan crystals resulting from the MTT reduction by living cells and read at 570 nm with the VICTOR Nivo plate reader (Perkin Elmer, Waltham, MA, USA). CC50 values were determined using GraphPad Prism 7 software (San Diego, CA, USA).

[3] = tested on: Schistosoma mansoni adult worms; assay: Viability of Schistosoma mansoni adult worms in vitro; assay type: cell-based, Schistosoma mansoni NMRI strain; details: 37 °C; for time to kill all parasites / time to reach the death of half of the population of worms: Table S1, dose at 100 μg/ml, unit not given in Table S1 (h in Table 2); for Activity/toxicity towards schistosomes (in words): adult worms, 100 μg/mL
Procedure: Experiments on the viability of Schistosoma mansoni adult worms. In vitro tests were performed on Schistosoma mansoni NMRI strains. This parasite is lab maintained on Biomphalaria glabrata (BRE strain) as intermediate mollusc host and Golden Hamster (Janvier Labs, Le Genest-Saint-Isle, France) as definitive vertebrate host. Methods, for molluscs’ and hamsters’ infection and for parasite recovery, were previously described. Adult worms were recovered by hepatic perfusion technique between 42 and 47 days post hamster exposition to parasite larvae. Worms were carefully collected and disposed in 12-well Falcon® plate containing 2 mL of RPMI 1640 (supplemented with L-glutamine and Hepes 25 mM). The plates containing a minimum of 15 worms by well were then placed in an incubator chamber at 37 °C and 5% CO2. The worms sex ratio was almost balanced in each well. The drug was first dissolved in DMSO (Sigma-Aldrich) to give a 100 mg/mL mother solution. Then the stock solution was complemented with Tween 80 and RPMI to obtain the following final ratio dilution: RPMI 1640/Tween 80/DMSO and 1000/0.95/3.8, v/v/v.
All molecules were tested at a final concentration of 100 µg/mL and 10 µg/mL. A negative control consisted in adding the same RPMI 1640/Tween 80/DMSO solution, but without any drug and a positive control consisted in adding praziquantel. All molecules and control were performed in duplicates of well. The worm viability was checked after 1, 2, 3, 4, 5, 6, 7, 8, 24, 48, and 72 h after adding the molecule.

[4] = C–ON bond homolysis in t-BuPh, EPR, T (°C): A1L 128.0, A3L 125.0, A5L 130.0, A6L 125, A7L 126.5, A1D 122.5, A3D 119.8, A5D 130
[5] = C–ON bond homolysis in water/n-PrOH v/v 1:1, EPR, T (°C): A1L 95.1, A3L 94.5, A4L 94.6, A5L 94.0, A6L 94.8, A7L 94.3, A1D 93.5, A3D 92.6, A4D 95.0, A5D 94.6

| SMILES | Homolysis rate constant kd [1, 4] | Homolysis rate constant kd [1, 5] | Activation energy Ea ([1]; in t-BuPh) [kcal/mol] | Activation energy Ea ([1]; in water/n-PrOH v/v 1:1) [kcal/mol] | CC50 [2] [µM] | time to kill all parasites [3] | time to reach the death of half of the population of worms [3] | Activity/toxicity towards schistosomes (in words) [3] |
| --- | --- | --- | --- | --- | --- | --- | --- | --- |
| CC(ON1C(C)(C)CCCC1(C)C)c1ccc(NC(=O)[C@@H](Cc2ccccc2)NC(=O)[C@H](NC(=O)[C@@H](Cc2ccccc2)NC(=O)OC(C)(C)C)C(C)C)cc1 (stereo partly drawn) [A3D, tert-butyl ((2R)-1-(((2R)-3-methyl-1-oxo-1-(((2R)-1-oxo-3-phenyl-1-((4-(1-((2,2,6,6-tetramethylpiperidin-1-yl)oxy)ethyl)phenyl)amino)propan-2-yl)amino)butan-2-yl)amino)-1-oxo-3-phenylpropan-2-yl)carbamate] | 9.6 10^−4 s^−1 | 0.45 10^−4 s^−1 | 31.6 | 31.31 | > 50 |  |  |  |
| CC(ON1C(C)(C)CCCC1(C)C)c1ccc(NC(=O)[C@@H](Cc2ccccc2)NC(=O)[C@H](NC(=O)[C@H](N)Cc2ccccc2)C(C)C)cc1 (stereo partly drawn) [A4D, (2R)-1-(((2R)-3-methyl-1-oxo-1-(((2R)-1-oxo-3-phenyl-1-((4-(1-((2,2,6,6-tetramethylpiperidin-1-yl)oxy)ethyl)phenyl)amino)propan-2-yl)amino)butan-2-yl)amino)-1-oxo-3-phenylpropan-2-aminium trifluoroacetate] |  | 1.2 10^−4 s^−1 |  | 30.81 | 2.6 ± 0.3 | 7 | 2 | toxic to schistosomes |
| CC(ON1C(C)(C)CCCC1(C)C)c1ccc(NC(=O)[C@@H](Cc2ccccc2)NC(=O)[C@H](NC(=O)[C@H](N)Cc2ccccc2)C(C)C)cc1 (stereo partly drawn) [A5D, (2R)-2-((R)-2-amino-3-phenylpropanamido)-3-methyl-N-((2R)-1-oxo-3-phenyl-1-((4-(1-((2,2,6,6-tetramethylpiperidin-1-yl)oxy)ethyl)phenyl)amino)propan-2-yl)butanamide] | 11.6 10^−4 s^−1 | 1.3 10^−4 s^−1 | 31.72 | 30.71 | 2.2 ± 0.3 | 4 | 1 | toxic to schistosomes |
| CCc1ccc(NC(=O)[C@@H](Cc2ccccc2)NC(=O)[C@H](NC(=O)[C@@H](Cc2ccccc2)NC(=O)OC(C)(C)C)C(C)C)cc1 [P21D, Tert-butyl ((R)-1-(((R)-1-(((R)-1-((4-ethylphenyl)amino)-1-oxo-3-phenylpropan-2-yl)amino)-3-methyl-1-oxobutan-2-yl)amino)-1-oxo-3-phenylpropan-2-yl)carbamate] |  |  |  |  | > 50 | 24 | 5 | unexpectedly toxic |
| CCc1ccc(NC(=O)[C@@H](Cc2ccccc2)NC(=O)[C@H](NC(=O)[C@H](N)Cc2ccccc2)C(C)C)cc1 [P22D, (R)-1-(((R)-1-(((R)-1-((4-ethylphenyl)amino)-1-oxo-3-phenylpropan-2-yl)amino)-3-methyl-1-oxobutan-2-yl)amino)-1-oxo-3-phenylpropan-2-aminium trifluoroacetate] |  |  |  |  | 11 | 24 | 4 | unexpectedly toxic |
